{"source": "patent US12428377B2", "about": "“Sodium-hydrogen exchanger 3 inhibitor compounds” (Eli Lilly and Company, priority 2019, dated 2025)", "key": {"[1]": {"test_system": "male spontaneously hypertensive (SHR) rats", "assay": "Effect on blood pressure (telemetry) in spontaneously hypertensive rats", "format": "in vivo, rat", "details": "0.15 mg/kg/day", "source_text": "Effect of Example 2 on Blood Pressure Male spontaneously hypertensive (SHR) rats weighing 250-300 g with age of 7 weeks are acclimated to a reversed light cycle (8:00 am lights off and 8:00 pm lights on) and fed regular chow and water ad libitum. Implantable telemetry devices (model TA11PA-C40, Data Sciences International) are implanted into the abdominal aorta. After recovering from surgery, rats are placed in individual cages in a quiet telemetry facility room for measuring blood pressure (mean arterial pressure, MAP) and heart rate (HR). Digitized pressure signals are acquired for 20 second every 5 min using DSI Dataquest IV 4.0 software. The 31 SHR rats are randomized by MAP into two groups and treated twice daily for 14 days with vehicle (n=15) (10% acacia, 0.05% antifoam in purified water) or 0.15 mg/kg/day Example 2. The first dose is given between 6:00 and 6:30 am (2 h prior to lights off) and the second dose is given between 4:00 and 4:30 pm. The daily food consumption and body weight gain are also monitored. MAP, HR, and body weight (BW) data are analyzed by repeated measures analysis of covariance (ANCOVA) with baseline as the covariate. Food consumption (FC) data are analyzed by repeated measures analysis of variance (ANOVA). The mean blood pressure across the time course of the study (days 1-14) for the group treated with 0.15 mg/kg/day of Example 2 is 4.83 mm Hg less than that of the control group with a p-value of 0.0007 (Table 1)."}, "[2]": {"test_system": "Male Sprague-Dawley rats", "assay": "Effect of Example 2 on sodium and phosphate absorption (urinary excretion after oral NaH2PO4 bolus)", "format": "in vivo, rat", "details": "4 h urine; for ED50: Rattus norvegicus, oral, NaH2PO4 bolus 690 mg/kg; for Ratio of Urinary-to-Dietary Phosphorus / Ratio of Urinary-to-Dietary Sodium: mean ± SEM", "protocol": "Effect of Example 2 on Sodium and Phosphate Absorption Urinary sodium and phosphate excretion following an oral bolus dose of sodium phosphate is an indirect measure of sodium and phosphate absorption in the intestine. Male Sprague-Dawley rats at an age of about 7 weeks with body weights ranging from 195 to 221 g are randomized into groups based on equal mean body weights. Example 2 at 0.3 mg/mL (final dose 3 mg/kg dosed in 10 mL/kg volume) is formulated by adding 1% HEC to a glass vial containing a pre-weighed amount of compound, and then probe sonicating until it appears as a uniform suspension. […] The subsequent dosing solutions of Example 2 are prepared by serial dilutions with 1% HEC. NaH2PO4 at 34.5 mg/ml (final dose 690 mg/kg dosed in 20 ml/kg volume) is formulated by adding sterile water. On the day of the study, the animals are placed into clean cages without food but with access to water for a 4 h fast before the study. Rats are orally dosed with vehicle or varying doses of Example 2. 15 min later, animals are dosed with sterile water or NaH2PO4, then immediately transferred to metabolic cages. Urine samples are collected for 4 h. Net urine volume is recorded. Urinary sodium, creatinine, and phosphate are assessed using a clinical biochemistry analyzer. Values expressed as the ratio of urinary-to-dietary phosphorus or sodium are calculated and presented as mean±SEM. Curves are fitted with a 4-parameter logistic curve fitting tool GraphPod Prism 6 to calculate the ED50. For the purpose of curve fitting, the dose of Example 2 is artificially set to 0.00001 mg/kg in the software for the vehicle-alone group."}}, "note": "Where two headings read alike, the source gives them in different places.", "data": [{"smiles": "CN1Cc2c(Cl)cc(Cl)cc2[C@H](c2cccc(S(=O)(=O)NCCOCCOCCN/C(=N\\C(N)=O)NCCCCN/C(=N/C(N)=O)NCCOCCOCCNS(=O)(=O)c3cccc([C@@H]4CN(C)Cc5c(Cl)cc(Cl)cc54)c3)c2)C1.Cl.Cl", "note": "[Example 2, [[4-[[N′-Carbamoyl-N-[2-[2-[2-[[3-[(4S)-6,8-dichloro-2-methyl-3,4-dihydro-1H-isoquinolin-4-yl]phenyl]sulfonylamino]ethoxy]ethoxy]ethyl]carbamimidoyl]amino]butylamino]-[2-[2-[2-[[3-[(4S)-6,8-dichloro-2-methyl-3,4-dihydro-1H-isoquinolin-4-yl]phenyl]sulfonylamino]ethoxy]ethoxy]ethylamino]methylene]urea dihydrochloride]", "values": [{"measurement": "Effect on body weight (BW)", "setting": "[1]; 14 days", "result": "No significant effect"}, {"measurement": "Effect on food consumption (FC)", "setting": "[1]; 14 days", "result": "No significant effect"}, {"measurement": "Effect on heart rate (HR)", "setting": "[1]; 14 days", "result": "No significant effect"}, {"measurement": "Difference in mean blood pressure vs vehicle", "setting": "[1]; days 1-14, less than control, p-value 0.0007", "result": 4.83, "unit": "mm Hg"}, {"measurement": "Mean blood pressure over days 1-14", "setting": "[1]; twice daily for 14 days", "result": 153.33, "unit": "mm Hg"}, {"measurement": "ED50", "setting": "[2]; read-out: ED50 on sodium excretion", "result": 0.058, "unit": "mg/kg"}, {"measurement": "ED50", "setting": "[2]; read-out: ED50 on urinary phosphorus excretion", "result": 0.041, "unit": "mg/kg"}, {"measurement": "Ratio of Urinary-to-Dietary Phosphorus", "setting": "[2]; oral 0.001 mg/kg", "result": "0.337 ± 0.017"}, {"measurement": "Ratio of Urinary-to-Dietary Sodium", "setting": "[2]; oral 0.001 mg/kg", "result": "0.326 ± 0.042"}, {"measurement": "Ratio of Urinary-to-Dietary Phosphorus", "setting": "[2]; oral 0.003 mg/kg", "result": "0.350 ± 0.023"}, {"measurement": "Ratio of Urinary-to-Dietary Sodium", "setting": "[2]; oral 0.003 mg/kg", "result": "0.413 ± 0.055"}, {"measurement": "Ratio of Urinary-to-Dietary Phosphorus", "setting": "[2]; oral 0.01 mg/kg", "result": "0.320 ± 0.042"}, {"measurement": "Ratio of Urinary-to-Dietary Sodium", "setting": "[2]; oral 0.01 mg/kg", "result": "0.290 ± 0.06"}, {"measurement": "Ratio of Urinary-to-Dietary Phosphorus", "setting": "[2]; oral 0.03 mg/kg", "result": "0.268 ± 0.04"}, {"measurement": "Ratio of Urinary-to-Dietary Sodium", "setting": "[2]; oral 0.03 mg/kg", "result": "0.276 ± 0.06"}, {"measurement": "Ratio of Urinary-to-Dietary Phosphorus", "setting": "[2]; oral 0.1 mg/kg", "result": "0.197 ± 0.045"}, {"measurement": "Ratio of Urinary-to-Dietary Sodium", "setting": "[2]; oral 0.1 mg/kg", "result": "0.105 ± 0.042"}, {"measurement": "Ratio of Urinary-to-Dietary Phosphorus", "setting": "[2]; oral 0.3 mg/kg", "result": "0.168 ± 0.027"}, {"measurement": "Ratio of Urinary-to-Dietary Sodium", "setting": "[2]; oral 0.3 mg/kg", "result": "0.039 ± 0.010"}, {"measurement": "Ratio of Urinary-to-Dietary Phosphorus", "setting": "[2]; oral 1 mg/kg", "result": "0.191 ± 0.039"}, {"measurement": "Ratio of Urinary-to-Dietary Sodium", "setting": "[2]; oral 1 mg/kg", "result": "0.051 ± 0.027"}, {"measurement": "Ratio of Urinary-to-Dietary Phosphorus", "setting": "[2]; oral 3 mg/kg", "result": "0.144 ± 0.009"}, {"measurement": "Ratio of Urinary-to-Dietary Sodium", "setting": "[2]; oral 3 mg/kg", "result": "0.022 ± 0.009"}]}]}
